# Measurements as given in patent publication US20240024403A1, “Compositions and Methods for Managing Weight” (Unigen, Inc., priority 2012, published 2024).
# Assay: High fat diet induced obesity (DIO) mouse model
# Type: in vivo, C57CL/6J mice
# Conditions: for Total Body Weight / Body Weight: in g (unit assumed)
# Description: C57CL/6J mice aged 4-6 weeks (Korea Research Institute of Bioscience & Biotechnology, Ohchang, Korea) were housed in Polycarbonate cages (five mice per cage) in a room with a 12 hr:12 hr light-dark cycle and an ambient temperature of 24° C. All the mice were fed a commercial chow diet for 1 week after arrival in the animal facility. Mice were then divided into normal and obesity groups and fed with normal diet (ND) and high fat diets (HFD) respectively. The HFD group was divided into multiple treatment groups: a high fat diet vehicle group (HFD), an orlistat (purchased as OTC drug Alli®) positive control treatment group (ORI, 40 mg/kg of animal weight, 2 times/day) and optionally a sibutramine positive control treatment group (10 mg/kg, 1 time/day). The HFD contained 340 g of fat/kg of HFD (310 g lard plus 30 g soybean oil; Harlan Laboratories, USA). The HFD was formulated to provide 60% of the total energy generated by the diet from fat by replacing carbohydrate energy with lard and soybean oil, whereas the normal diet (ND) group was fed a diet providing only 18% of the total diet energy from fat(Harlan Laboratories, USA).
# Body weight was measured once each week and feed intake was measured twice per week. At the end of the experimental period, following a 12 hr. fasting period, the animals were anesthetized with ether, and blood was drawn from the abdominal vein. Liver and kidney and adipose tissues (epididymal, retroperitoneal, perirenal adipose tissues) were removed from each animal, rinsed with physiological saline, and weighed. Serum concentrations of glucose, total cholesterol, triglycerides, and LDL-cholesterol were determined using automatic analyzer (INTEGRA 400, Roche, Germany). Statistical significance of test results was measured using the Student's t-test.
# [1] = week 3, mice fed a high fat diet, Mutamba fractions 250 mg/kg oral 2 times per day, mean
# [2] = week 4, DIO mice, oral twice daily, mg/kg/day: ORI 40, Combo (Composition 1A) 800, Magnolia 100, Yerba Mate 500, Morus 200
# [3] = week 4, DIO mice, combination (5:1) 1200 mg/kg twice a day by gavage, group mean
# [4] = week 4, mice fed a high fat diet, Mutamba fractions 250 mg/kg oral 2 times per day, mean
# [5] = week 5, DIO mice, oral twice daily, mg/kg/day: ORI 40, Combo (Composition 1A) 800, Magnolia 100, Yerba Mate 500, Morus 200
# [6] = week 5, DIO mice, combination (5:1) 1200 mg/kg twice a day by gavage, group mean
# [7] = week 5, mice fed a high fat diet, Mutamba fractions 250 mg/kg oral 2 times per day, mean
# [8] = week 6, DIO mice, oral twice daily, mg/kg/day: ORI 40, Combo (Composition 1A) 800, Magnolia 100, Yerba Mate 500, Morus 200
# [9] = week 6, DIO mice, combination (5:1) 1200 mg/kg twice a day by gavage, group mean
# [10] = week 6, mice fed a high fat diet, Mutamba fractions 250 mg/kg oral 2 times per day, mean
# [11] = week 7, DIO mice, oral twice daily, mg/kg/day: ORI 40, Combo (Composition 1A) 800, Magnolia 100, Yerba Mate 500, Morus 200
# [12] = week 7, DIO mice, combination (5:1) 1200 mg/kg twice a day by gavage, group mean
# [13] = week 7, mice fed a high fat diet, Mutamba fractions 250 mg/kg oral 2 times per day, mean
# [14] = week 8, DIO mice, oral twice daily, mg/kg/day: ORI 40, Combo (Composition 1A) 800, Magnolia 100, Yerba Mate 500, Morus 200
# [15] = week 8, mice fed a high fat diet, Mutamba fractions 250 mg/kg oral 2 times per day, mean
smiles,measurement,setting,value
"CCCCCCCCCCC[C@@H](C[C@@H]1OC(=O)[C@H]1CCCCCC)OC(=O)[C@H](CC(C)C)NC=O [ORI, orlistat]",Total Body Weight,"week 3, DIO mice, combination (5:1) 1200 mg/kg twice a day by gavage, group mean",35.12
same,Total Body Weight,"week 3, ORI 40 mg/kg, DIO mice (Table 52)",37.41
same,Total Body Weight,"week 3, ORI 40 mg/kg, DIO mice",35.66
same,Body Weight Gain,"week 3, ORI 40 mg/kg, mice fed high fat diet",−6.70
same,Body Weight Gain,[1],−2.63
same,Body Weight,[1],37.14
same,Weight Gain,"week 3, orlistat 40 mg/kg oral",−5.27
same,Weight Gain,[2],−3.84
same,Total Body Weight,[2],36.38
same,Body Weight Gain,"week 4, DIO mice, SIB 10 mg/kg, ORI 40 mg/kg, Mutamba extract 32 (G1) 1000 mg/kg/day oral, mean",−2.35
same,Body Weight Gain,"week 4, DIO mice, SIB 10 mg/kg, ORI 40 mg/kg, Mutamba extract 33-2 G1 1000 mg/kg, mean",−1.28
same,Weight Gain,"week 4, DIO mice, combination (1:1) 2000 mg/kg twice a day, group mean",−2.61
same,Weight Gain,[3],−2.61
same,Total Body Weight,[3],35.84
same,Total Body Weight,"week 4, ORI 40 mg/kg, DIO mice (Table 52)",37.60
same,Total Body Weight,"week 4, ORI 40 mg/kg, DIO mice",37.28
same,Body Weight Gain,"week 4, ORI 40 mg/kg, mice fed high fat diet",−5.01
same,Body Weight Gain,[4],−1.28
same,Body Weight,[4],38.49
same,Weight Gain,"week 4, orlistat 40 mg/kg oral",−3.47
same,Weight Gain,[5],−2.57
same,Total Body Weight,[5],37.65
same,Body Weight Gain,"week 5, DIO mice, SIB 10 mg/kg, ORI 40 mg/kg, Mutamba extract 32 (G1) 1000 mg/kg/day oral, mean",−1.84
same,Body Weight Gain,"week 5, DIO mice, SIB 10 mg/kg, ORI 40 mg/kg, Mutamba extract 33-2 G1 1000 mg/kg, mean",0.43
same,Weight Gain,"week 5, DIO mice, combination (1:1) 2000 mg/kg twice a day, group mean",−2.04
same,Weight Gain,[6],−2.04
same,Total Body Weight,[6],36.41
same,Total Body Weight,"week 5, ORI 40 mg/kg, DIO mice (Table 52)",38.12
same,Total Body Weight,"week 5, ORI 40 mg/kg, DIO mice",38.57
same,Body Weight Gain,"week 5, ORI 40 mg/kg, mice fed high fat diet",−3.81
same,Body Weight Gain,[7],0.43
same,Body Weight,[7],40.19
same,Weight Gain,"week 5, orlistat 40 mg/kg oral",−2.34
same,Weight Gain,[8],−1.47
same,Total Body Weight,[8],38.75
same,Body Weight Gain,"week 6, DIO mice, SIB 10 mg/kg, ORI 40 mg/kg, Mutamba extract 32 (G1) 1000 mg/kg/day oral, mean",0.08
same,Body Weight Gain,"week 6, DIO mice, SIB 10 mg/kg, ORI 40 mg/kg, Mutamba extract 33-2 G1 1000 mg/kg, mean",3.52
same,Weight Gain,"week 6, DIO mice, combination (1:1) 2000 mg/kg twice a day, group mean",−1.65
same,Weight Gain,[9],−1.65
same,Total Body Weight,[9],36.80
same,Total Body Weight,"week 6, ORI 40 mg/kg, DIO mice (Table 52)",40.04
same,Total Body Weight,"week 6, ORI 40 mg/kg, DIO mice",40.03
same,Body Weight Gain,"week 6, ORI 40 mg/kg, mice fed high fat diet",−2.36
same,Body Weight Gain,[10],3.52
same,Body Weight,[10],43.28
same,Weight Gain,"week 6, orlistat 40 mg/kg oral",−1.08
same,Weight Gain,[11],−0.26
same,Total Body Weight,[11],39.96
same,Body Weight Gain,"week 7, DIO mice, SIB 10 mg/kg, ORI 40 mg/kg, Mutamba extract 32 (G1) 1000 mg/kg/day oral, mean",1.81
same,Body Weight Gain,"week 7, DIO mice, SIB 10 mg/kg, ORI 40 mg/kg, Mutamba extract 33-2 G1 1000 mg/kg, mean",3.72
same,Weight Gain,[12],−0.07
same,Total Body Weight,[12],38.38
same,Total Body Weight,"week 7, ORI 40 mg/kg, DIO mice (Table 52)",41.77
same,Total Body Weight,"week 7, ORI 40 mg/kg, DIO mice",40.91
same,Body Weight Gain,"week 7, ORI 40 mg/kg, mice fed high fat diet",−1.42
same,Body Weight Gain,[13],3.72
same,Body Weight,[13],43.49
same,Weight Gain,"week 7, orlistat 40 mg/kg oral",0.02
same,Weight Gain,[14],−0.23
same,Total Body Weight,[14],39.99
same,Body Weight Gain,"week 8, DIO mice, SIB 10 mg/kg, ORI 40 mg/kg, Mutamba extract 32 (G1) 1000 mg/kg/day oral, mean",2.10
same,Body Weight Gain,"week 8, DIO mice, SIB 10 mg/kg, ORI 40 mg/kg, Mutamba extract 33-2 G1 1000 mg/kg, mean",5.13
same,Total Body Weight,"week 8, ORI 40 mg/kg, DIO mice (Table 52)",42.06
same,Body Weight Gain,[15],5.13
same,Body Weight,[15],44.90
